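A five-concentration, 48-hour dose response in 96-well plates underlies each endpoint, interpolated linearly between surrounding concentrations. GI50: concentration for 50% inhibition of growth.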 Activity calls are given as the source filed them. No stated cut-off is given here; in the data, active = GI50 up to about 1.1 µM and inactive = higher.
What was measured:
Assay in all cases: NCI anticancer screen, dose series, 48 h
MCF7 = tested on: MCF7
HCT-15 = tested on: HCT-15
RXF 393 = tested on: RXF 393
SK-MEL-5 = tested on: SK-MEL-5
LOX IMVI = tested on: LOX IMVI
M14 = tested on: M14
PC-3 = tested on: PC-3
Hs-578T = tested on: Hs-578T
SW-620 = tested on: SW-620
NCI/ADR-RES = tested on: NCI/ADR-RES
T47D = tested on: T47D
TK-10 = tested on: TK-10
A498 = tested on: A498
HL-60 = tested on: HL-60
SF-295 = tested on: SF-295
786-0 = tested on: 786-0
SNB-75 = tested on: SNB-75
CAKI-1 = tested on: CAKI-1
HCT-116 = tested on: HCT-116
M19-MEL = tested on: M19-MEL

| SMILES | GI50 (MCF7) | GI50 (HCT-15) [µM] | GI50 (RXF 393) | GI50 (SK-MEL-5) | GI50 (LOX IMVI) | GI50 (M14) | GI50 (PC-3) | GI50 (Hs-578T) | GI50 (SW-620) | GI50 (NCI/ADR-RES) | GI50 (T47D) | GI50 (TK-10) | GI50 (A498) | GI50 (HL-60) | GI50 (SF-295) | GI50 (786-0) | GI50 (SNB-75) | GI50 (CAKI-1) | GI50 (HCT-116) | GI50 (M19-MEL) |
| --- | --- | --- | --- | --- | --- | --- | --- | --- | --- | --- | --- | --- | --- | --- | --- | --- | --- | --- | --- | --- |
| O=C1Nc2ccccc2S/C1=C\c1ccc(C(F)(F)F)cc1 | > 100 µM (inactive) | > 100 | > 100 µM (inactive) | > 100 µM (inactive) | > 100 µM (inactive) | > 100 µM (inactive) | > 100 µM (inactive) | > 100 µM (inactive) | > 100 µM (inactive) | > 100 µM (inactive) | > 100 µM (inactive) | > 100 µM (inactive) | > 100 µM (inactive) | > 100 µM (inactive) | > 100 µM (inactive) | > 100 µM (inactive) | 37.1 µM (inactive) | 4.59 µM (inactive) | > 100 µM (inactive) |  |
| CCC1(O)CC(OC2CC(N(C)C)C(OC3CC(O)C(OC4CCC(=O)C(C)O4)C(C)O3)C(C)O2)c2c(cc3c(c2O)C(=O)c2c(O)ccc(O)c2C3=O)C1C(=O)OC (stereo unspecified) | < 0.01 µM (active) | < 0.01 | < 0.01 µM (active) | < 0.01 µM (active) | < 0.01 µM (active) | < 0.01 µM (active) | < 0.01 µM (active) | < 0.0407 µM (active) | < 0.01 µM (active) | < 0.01 µM (active) | < 0.01 µM (active) | < 0.01 µM (active) | < 0.01 µM (active) | < 0.01 µM (active) | < 0.01 µM (active) | < 0.01 µM (active) | < 0.01 µM (active) | < 0.01 µM (active) | < 0.01 µM (active) |  |
| CCN(CC)Cc1nc2sc3c(c2c(=O)n1-c1ccccc1)CCCC3 | 17.5 µM (inactive) | 23.8 | 18.5 µM (inactive) | 16.3 µM (inactive) | 13.8 µM (inactive) | 15.9 µM (inactive) | 15.9 µM (inactive) | 34.5 µM (inactive) | 16.7 µM (inactive) | 24.8 µM (inactive) | 18.8 µM (inactive) | 16.4 µM (inactive) | 15.3 µM (inactive) | 23.3 µM (inactive) | 23.7 µM (inactive) | 17.7 µM (inactive) | 18.4 µM (inactive) | 19.7 µM (inactive) | 18.7 µM (inactive) |  |
| N[C@H]1c2c(Br)sc(Br)c2C(=O)[C@H]1O | 13.3 µM (inactive) | 6.78 | 4.95 µM (inactive) | 12.5 µM (inactive) | 3.61 µM (inactive) | 8.69 µM (inactive) | 28.5 µM (inactive) | 31 µM (inactive) | 6.41 µM (inactive) | 16 µM (inactive) | 21.9 µM (inactive) | 96.8 µM (inactive) | > 100 µM (inactive) | 2.85 µM (inactive) | 21.7 µM (inactive) | 18.6 µM (inactive) | 29.2 µM (inactive) | 0.214 µM (active) | 16.4 µM (inactive) |  |
| c1ccc2cc(NCNc3ccc4ccccc4c3)ccc2c1 | 11.8 µM (inactive) | 15.6 | 10.3 µM (inactive) | 6.25 µM (inactive) | 10.8 µM (inactive) | 15.5 µM (inactive) | 15.5 µM (inactive) | 37.8 µM (inactive) | 34.2 µM (inactive) | 21.7 µM (inactive) | 15.7 µM (inactive) | 21.7 µM (inactive) | 19.9 µM (inactive) | 0.893 µM (active) | 15.2 µM (inactive) | 17.3 µM (inactive) | 13.2 µM (inactive) | 17.9 µM (inactive) | 16.7 µM (inactive) |  |
| Cc1ccc(O)c(C(=O)CCCC(=O)c2cc(C)ccc2O)c1 |  | 45.8 |  | > 100 µM (inactive) | 57.1 µM (inactive) | > 100 µM (inactive) |  |  | 30.2 µM (inactive) |  |  | 48.1 µM (inactive) | > 100 µM (inactive) | 27.4 µM (inactive) | > 100 µM (inactive) | 38.3 µM (inactive) | 81.5 µM (inactive) | > 100 µM (inactive) |  | > 100 µM (inactive) |
| C[C@]12CC[C@H](O)C[C@@H]1CC[C@@H]1[C@@H]2CC[C@]2(C)[C@@H](c3cc(C(F)(F)F)[nH]n3)CC[C@@H]12 | 5.75 µM (inactive) | 6.32 | 4.15 µM (inactive) | 6.82 µM (inactive) | 6.11 µM (inactive) | 9.1 µM (inactive) | 6.38 µM (inactive) | > 35.6 µM (inactive) | 12.1 µM (inactive) | 6.32 µM (inactive) | 5.26 µM (inactive) | 6.07 µM (inactive) | 8.59 µM (inactive) | 0.908 µM (active) | 4.23 µM (inactive) | 4.35 µM (inactive) | 11.6 µM (inactive) | 13.2 µM (inactive) | 3.35 µM (inactive) |  |
| O=C1C2CC=CCC2C(=O)N1n1c(Cc2ccc(Cl)cc2)n[nH]c1=O (stereo unspecified) | > 100 µM (inactive) | > 100 | > 100 µM (inactive) | > 100 µM (inactive) | > 100 µM (inactive) | > 100 µM (inactive) | > 100 µM (inactive) | > 100 µM (inactive) | > 100 µM (inactive) | > 100 µM (inactive) | > 100 µM (inactive) | > 100 µM (inactive) | > 100 µM (inactive) | > 100 µM (inactive) | > 100 µM (inactive) | > 100 µM (inactive) | > 100 µM (inactive) | > 100 µM (inactive) | > 100 µM (inactive) |  |

Source: ChEMBL document CHEMBL1201862, “PubChem BioAssay data set” (2004)
